# Results reported in patent publication US20240228458A1, “PYRIMIDINE DERIVATIVE HAVING PROTEIN KINASE INHIBITORY ACTIVITY, AND THERAPEUTIC PHARMACEUTICAL COMPOSITION COMPRISING SAME” (THERAPEX CO., LTD., priority 2021, published 2024).
# How the values were obtained:
# Assay type in all cases: cell-based
# [1] = tested on: Ba/F3 cells expressing L858R/T790M (EGFR-LT); test: Growth inhibition (GI50) of Ba/F3 cells expressing L858R/T790M (EGFR-LT), Celltiter glo; conditions: Mus musculus, BaF3, 72 h
# Procedure, shortened: (§1)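 Steps: plate engineered Ba/F3 cells (100,000 cells/ml); wait 4 h; add compound as a 4-fold, 10-point dilution series made from 2 mM stock, DMSO 0.5%; incubate 72 h at 37 °C under 5% CO2; measure ATP-based viability with CellTiter-Glo; calculate GI50.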
# [2] = tested on: Ba/F3 cells expressing L858R/T790M/C797S (EGFR-LTC); test: Growth inhibition (GI50) of Ba/F3 cells expressing L858R/T790M/C797S (EGFR-LTC), Celltiter glo; conditions: Mus musculus, BaF3, 72 h
# Procedure, shortened: as §1
# [3] = tested on: Ba/F3 cells expressing EGFR-wt; test: Growth inhibition (GI50) of Ba/F3 cells expressing EGFR-wt, Celltiter glo; conditions: Mus musculus, BaF3, 72 h
# Procedure, shortened: as §1
# parental Ba/F3 cell line = test: Growth inhibition (GI50) of the parental Ba/F3 cell line (not introduced with EGFR variants), Celltiter glo; conditions: Mus musculus, BaF3, 72 h, parental Ba/F3 cells
# Procedure, shortened: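 Viable cell count by CellTiter-Glo after 72 h at 37 °C gave GI50 values (μM, 50% growth inhibition). Cells lacking EGFR variants were seeded at 100,000 cells/ml and dosed 4 h later with 4-fold serial dilutions from a 2 mM stock, 0.5% DMSO.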
# [4] = tested on: Ba/F3 cells expressing del19/T790M (EGFR-DT); test: Growth inhibition (GI50) of Ba/F3 cells expressing del19/T790M (EGFR-DT), Celltiter glo; conditions: Mus musculus, BaF3, 72 h
# Procedure, shortened: as §1
# [5] = tested on: Ba/F3 cells expressing del19/T790M/C797S (EGFR-DTC); test: Growth inhibition (GI50) of Ba/F3 cells expressing del19/T790M/C797S (EGFR-DTC), Celltiter glo; conditions: Mus musculus, BaF3, 72 h
# Procedure, shortened: as §1
GI50 [1],GI50 [2],GI50 [3],GI50 [4],GI50 [5],SMILES,GI50 (parental Ba/F3 cell line)
100 to 500 nM,25 to 100 nM,100 to 500 nM,100 to 500 nM,1 to 25 nM,"Cc1cc(Nc2ncc(Br)c(Nc3ccc4nccnc4c3P(C)(C)=O)n2)c(Cl)cc1N1CCC(N2CCN(C)CC2)CC1 [Example 193, (6-((5-bromo-2-((2-chloro-5-methyl-4-(4-(4-methylpiperazin-1-yl)piperidin-1-yl)phenyl)amino)pyrimidin-4-yl)amino)quinoxalin-5-yl)dimethylphosphine oxide]",500 to 2000 nM
100 to 500 nM,25 to 100 nM,100 to 500 nM,25 to 100 nM,25 to 100 nM,"COc1cc(N2CCC(N3CCN(C)CC3)CC2)c(Cl)cc1Nc1ncc(Br)c(Nc2ccc3nccnc3c2P(C)(C)=O)n1 [Example 194, (6-((5-bromo-2-((5-chloro-2-methoxy-4-(4-(4-methylpiperazin-1-yl)piperidin-1-yl)phenyl)amino)pyrimidin-4-yl)amino)quinoxalin-5-yl)dimethylphosphine oxide]",100 to 500 nM
25 to 100 nM,100 to 500 nM,500 to 2000 nM,1 to 25 nM,1 to 25 nM,"COc1cc(N2CCC(N3CCCC(N(C)C)C3)CC2)c(C)cc1Nc1ncc(Br)c(Nc2cc3c(cc2NS(C)(=O)=O)CCO3)n1 (stereo not drawn) [Example 196, N-(6-((5-bromo-2-((4-(3-(dimethylamino)-[1,4′-bipiperidin]-1′-yl)-2-methoxy-5-methylphenyl)amino)pyrimidin-4-yl)amino)-2,3-dihydrobenzofuran-5-yl)methanesulfonamide]",2000 to 10000 nM
100 to 500 nM,100 to 500 nM,100 to 500 nM,1 to 25 nM,25 to 100 nM,"Cc1cc(Nc2ncc(Cl)c(Nc3cc4c(cc3NS(C)(=O)=O)CCO4)n2)c(Cl)cc1N1CCC(N2CCCC(N(C)C)C2)CC1 (stereo not drawn) [Example 197, N-(6-((5-chloro-2-((2-chloro-4-(3-(dimethylamino)-[1,4′-bipiperidin]-1′-yl)-5-methylphenyl)amino)pyrimidin-4-yl)amino)-2,3-dihydrobenzofuran-5-yl)methanesulfonamide]",2000 to 10000 nM
25 to 100 nM,1 to 25 nM,100 to 500 nM,1 to 25 nM,1 to 25 nM,"COc1ccc(NS(C)(=O)=O)c(Nc2nc(Nc3cc(C)c(N4CCC(N5CCN(C)CC5)CC4)cc3OC)ncc2Cl)c1 [Example 199, N-(2-((5-chloro-2-((2-methoxy-5-methyl-4-(4-(4-methylpiperazin-1-yl)piperidin-1-yl)phenyl)amino)pyrimidin-4-yl)amino)-4-methoxyphenyl)methanesulfonamide]",100 to 500 nM
25 to 100 nM,25 to 100 nM,100 to 500 nM,1 to 25 nM,25 to 100 nM,"COc1ccc(NS(C)(=O)=O)c(Nc2nc(Nc3cc(C)c(N4CCC(N5CCN(C)CC5)CC4)cc3Cl)ncc2Cl)c1 [Example 200, N-(2-((5-chloro-2-((2-chloro-5-methyl-4-(4-(4-methylpiperazin-1-yl)piperidin-1-yl)phenyl)amino)pyrimidin-4-yl)amino)-4-methoxyphenyl)methanesulfonamide]",100 to 500 nM
1 to 25 nM,1 to 25 nM,1 to 25 nM,1 to 25 nM,1 to 25 nM,"COc1ccc(NS(C)(=O)=O)c(Nc2nc(Nc3cc(Cl)c(N4CCC(N5CCN(C)CC5)CC4)cc3OC)ncc2Cl)c1 [Example 201, N-(2-((5-chloro-2-((5-chloro-2-methoxy-4-(4-(4-methylpiperazin-1-yl)piperidin-1-yl)phenyl)amino)pyrimidin-4-yl)amino)-4-methoxyphenyl)methanesulfonamide]",25 to 100 nM
25 to 100 nM,25 to 100 nM,100 to 500 nM,1 to 25 nM,25 to 100 nM,"COc1ccc(NS(C)(=O)=O)c(Nc2nc(Nc3cc(Cl)c(N4CCC(N5CCN(C)CC5)CC4)cc3Cl)ncc2Cl)c1 [Example 202, N-(2-((5-chloro-2-((2,5-dichloro-4-(4-(4-methylpiperazin-1-yl)piperidin-1-yl)phenyl)amino)pyrimidin-4-yl)amino)-4-methoxyphenyl)methanesulfonamide]",100 to 500 nM
100 to 500 nM,25 to 100 nM,500 to 2000 nM,1 to 25 nM,25 to 100 nM,"CCc1cc(Nc2ncc(Cl)c(Nc3cc(OC)ccc3NS(C)(=O)=O)n2)c(OC)cc1N1CCC(N2CCN(C)CC2)CC1 [Example 203, N-(2-((5-chloro-2-((5-ethyl-2-methoxy-4-(4-(4-methylpiperazin-1-yl)piperidin-1-yl)phenyl)amino)pyrimidin-4-yl)amino)-4-methoxyphenyl)methanesulfonamide]",2000 to 10000 nM
25 to 100 nM,25 to 100 nM,25 to 100 nM,1 to 25 nM,1 to 25 nM,"COc1ccc(NS(C)(=O)=O)c(Nc2nc(Nc3cc(C)c(N4CCC(N5CCCN(C)CC5)CC4)cc3OC)ncc2Cl)c1 [Example 204, N-(2-((5-chloro-2-((2-methoxy-5-methyl-4-(4-(4-methyl-1,4-diazepan-1-yl)piperidin-1-yl)phenyl)amino)pyrimidin-4-yl)amino)-4-methoxyphenyl)methanesulfonamide]",2000 to 10000 nM
1 to 25 nM,1 to 25 nM,25 to 100 nM,1 to 25 nM,1 to 25 nM,"CN1CCN(C2CCN(c3cc(Cl)c(Nc4ncc(Cl)c(Nc5cc6c(cc5NS(C)(=O)=O)CCO6)n4)cc3Cl)CC2)CC1 [Example 205, N-(6-((5-chloro-2-((2,5-dichloro-4-(4-(4-methylpiperazin-1-yl)piperidin-1-yl)phenyl)amino)pyrimidin-4-yl)amino)-2,3-dihydrobenzofuran-5-yl)methanesulfonamide]",2000 to 10000 nM
1 to 25 nM,25 to 100 nM,100 to 500 nM,1 to 25 nM,1 to 25 nM,"CCc1cc(Nc2ncc(Cl)c(Nc3cc4c(cc3NS(C)(=O)=O)CCO4)n2)c(OC)cc1N1CCC(N2CCN(C)CC2)CC1 [Example 206, N-(6-((5-chloro-2-((5-ethyl-2-methoxy-4-(4-(4-methylpiperazin-1-yl)piperidin-1-yl)phenyl)amino)pyrimidin-4-yl)amino)-2,3-dihydrobenzofuran-5-yl)methanesulfonamide]",2000 to 10000 nM
1 to 25 nM,25 to 100 nM,100 to 500 nM,25 to 100 nM,25 to 100 nM,"COc1cc(N2CCC(N3CCNCC3)CC2)c(C)cc1Nc1ncc(Cl)c(Nc2cc3c(cc2NS(C)(=O)=O)CCO3)n1 [Example 207, N-(6-((5-chloro-2-((2-methoxy-5-methyl-4-(4-(piperazin-1-yl)piperidin-1-yl)phenyl)amino)pyrimidin-4-yl)amino)-2,3-dihydrobenzofuran-5-yl)methanesulfonamide]",2000 to 10000 nM
1 to 25 nM,25 to 100 nM,100 to 500 nM,1 to 25 nM,1 to 25 nM,"COc1cc(N2CCC(N3CCN(C4CC4)CC3)CC2)c(C)cc1Nc1ncc(Cl)c(Nc2cc3c(cc2NS(C)(=O)=O)CCO3)n1 [Example 208, N-(6-((5-chloro-2-((4-(4-(4-cyclopropylpiperazin-1-yl)piperidin-1-yl)-2-methoxy-5-methylphenyl)amino)pyrimidin-4-yl)amino)-2,3-dihydrobenzofuran-5-yl)methanesulfonamide]",2000 to 10000 nM
1 to 25 nM,25 to 100 nM,100 to 500 nM,25 to 100 nM,1 to 25 nM,"COc1cc(N2CCC(N3CCC(N(C)C)C3)CC2)c(C)cc1Nc1ncc(Cl)c(Nc2cc3c(cc2NS(C)(=O)=O)CCO3)n1 (stereo not drawn) [Example 209, N-(6-((5-chloro-2-((4-(4-(3-(dimethylamino)pyrrolidin-1-yl)piperidin-1-yl)-2-methoxy-5-methylphenyl)amino)pyrimidin-4-yl)amino)-2,3-dihydrobenzofuran-5-yl)methanesulfonamide]",2000 to 10000 nM
25 to 100 nM,25 to 100 nM,500 to 2000 nM,25 to 100 nM,100 to 500 nM,"Cc1cc(Nc2ncc(Cl)c(Nc3cc4c(cc3NS(C)(=O)=O)CCO4)n2)c(Cl)cc1N1CCC(N2CCC(N(C)C)C2)CC1 (stereo not drawn) [Example 210, N-(6-((5-chloro-2-((2-chloro-4-(4-(3-(dimethylamino)pyrrolidin-1-yl)piperidin-1-yl)-5-methylphenyl)amino)pyrimidin-4-yl)amino)-2,3-dihydrobenzofuran-5-yl)methanesulfonamide]",2000 to 10000 nM
25 to 100 nM,1 to 25 nM,100 to 500 nM,1 to 25 nM,25 to 100 nM,"COc1cc(N2CCC(N3CCC(N(C)C)C3)CC2)c(C)cc1Nc1ncc(Br)c(Nc2cc3c(cc2NS(C)(=O)=O)CCO3)n1 (stereo not drawn) [Example 211, N-(6-((5-bromo-2-((4-(4-(3-(dimethylamino)pyrrolidin-1-yl)piperidin-1-yl)-2-methoxy-5-methylphenyl)amino)pyrimidin-4-yl)amino)-2,3-dihydrobenzofuran-5-yl)methanesulfonamide]",2000 to 10000 nM
